Test results published in US8076338B2, “Kinase modulators and methods of use” (Exelixis, Inc., priority 2004, dated 2011).
Read-outs that look alike come from different tables or passages of the source.

Key:
AktK = AktK (Homo sapiens, UniProt P31749); test: Luciferase-coupled chemiluminescence kinase assay (ATP consumption); assay type: biochemical; details: read-out: AKT-1 IC50
Procedure, shortened: (§1)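 Enzyme at 2.5-5 nM was preincubated 30 min at room temperature with compound in Tris pH 7.5, MgCl2, TX-100, DTT, then reacted with ATP for 3 h at ambient temperature. Remaining ATP was quantified by luciferase-luciferin chemiluminescence, with consumption kept at 25-60%; […].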

p70S6K = p70S6K (Homo sapiens, UniProt P23443); test: as above; assay type: biochemical
Chain of p70S6K (P23443 whole entry): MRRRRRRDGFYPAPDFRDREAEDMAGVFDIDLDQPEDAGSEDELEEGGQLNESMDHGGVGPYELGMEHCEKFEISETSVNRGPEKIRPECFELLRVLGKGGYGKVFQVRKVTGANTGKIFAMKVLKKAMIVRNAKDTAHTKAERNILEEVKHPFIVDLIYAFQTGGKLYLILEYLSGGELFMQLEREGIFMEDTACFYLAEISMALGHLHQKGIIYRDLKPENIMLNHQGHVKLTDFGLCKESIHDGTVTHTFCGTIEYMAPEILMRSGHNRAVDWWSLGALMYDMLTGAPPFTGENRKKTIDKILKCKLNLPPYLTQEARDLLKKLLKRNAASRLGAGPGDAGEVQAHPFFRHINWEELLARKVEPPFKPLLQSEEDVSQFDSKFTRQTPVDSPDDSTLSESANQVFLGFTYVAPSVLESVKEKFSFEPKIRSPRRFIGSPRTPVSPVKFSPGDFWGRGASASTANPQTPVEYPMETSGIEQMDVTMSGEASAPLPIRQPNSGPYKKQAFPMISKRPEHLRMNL
Procedure, shortened: as §1

Chain of AktK (P31749 whole entry): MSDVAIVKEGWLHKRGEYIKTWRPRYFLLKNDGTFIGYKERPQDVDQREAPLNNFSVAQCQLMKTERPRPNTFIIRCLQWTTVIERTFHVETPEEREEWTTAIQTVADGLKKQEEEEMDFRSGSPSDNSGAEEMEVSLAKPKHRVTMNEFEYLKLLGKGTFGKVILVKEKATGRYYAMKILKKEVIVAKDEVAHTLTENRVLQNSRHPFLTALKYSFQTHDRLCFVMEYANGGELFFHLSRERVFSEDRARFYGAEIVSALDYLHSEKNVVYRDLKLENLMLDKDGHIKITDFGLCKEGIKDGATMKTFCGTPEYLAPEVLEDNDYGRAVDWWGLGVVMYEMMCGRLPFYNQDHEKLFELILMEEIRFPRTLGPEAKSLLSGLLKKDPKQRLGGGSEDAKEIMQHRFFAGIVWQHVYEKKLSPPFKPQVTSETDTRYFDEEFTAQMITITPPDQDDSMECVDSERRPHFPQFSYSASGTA

IC50 (AktK; Table 1, class symbols per key) [nM] | IC50 (p70S6K; Table 1, class symbols per key) [nM] | IC50 (AktK) [nM] | IC50 (p70S6K) [nM] | Compound
 |  | < 100 | < 100 | Cc1c(NCCN2CCCC2)cc(OCC(F)(CF)CF)cc1N1CCN(c2ncnc3[nH]nc(/C=C/C(=O)O)c23)CC1 [Entry 291, (2E)-3-[4-(4-{5-{[2,3-difluoro-2-(fluoromethyl)pro-pyl]oxy}-2-methyl-3-[(2-pyrrolidin-1-ylethyl)a-mino]phenyl}piperazin-1-yl)-1H-pyrazolo[3,4-d]pyrimidin-3-yl]prop-2-enoic acid]
 |  | 1000 to 10000 | 100 to 1000 | CCc1n[nH]c2ncnc(N3CCN(c4cc(Cl)c(OCCN(C)C)cc4C)CC3)c12 [Entry 389, 2-({2-chloro-4-[4-(3-ethyl-1H-pyrazolo[3,4-d]pyrimidin-4-yl)piperazin-1-yl]-5-methylphenyl}oxy)-N,N-dimethylethanamine]
 |  | 1000 to 10000 | < 100 | CCc1n[nH]c2ncnc(N3CCN(c4cc(Cl)cc(CO)c4OC)CC3)c12 [Entry 367, [5-chloro-3-[4-(3-ethyl-1H-pyrazolo[3,4-d]pyrimidin-4-yl)piperazin-1-yl]-2-(methyloxy)phenyl]methanol]
 |  | ≥ 10000 | 100 to 1000 | CCc1n[nH]c2ncnc(N3CCCN(c4cccc(Cl)c4)CC3)c12 [Entry 343, 4-[4-(3-chlorophenyl)-1,4-diazepan-1-yl]-3-ethyl-1H-pyrazolo[3,4-d]pyrimidine]
 |  | < 100 | < 100 | Fc1ccc(-c2ccc(Cl)c(N3CCN(c4ncnc5[nH]nc(Br)c45)CC3)c2)c(OCCN2CCCC2)c1 [Entry 289, 3-bromo-4-(4-{4-chloro-4′-fluoro-2′-[(2-pyrrolidin-1-ylethyl)oxy]biphenyl-3-yl}piperazin-1-yl)-1H-pyrazolo[3,4-d]pyrimidine]
 |  | 1000 to 10000 | < 100 | Cc1ccc(Cl)cc1N1CCN(c2ncnc3[nH]ncc23)CC1 [Entry 320, 4-[4-(5-chloro-2-methylphenyl)piperazin-1-yl]-1H-pyrazolo[3,4-d]pyrimidine]
 |  | ≥ 10000 | 1000 to 10000 | Clc1ccc(N2CCN(c3ncnc4[nH]ccc34)CC2)cc1 [Entry 310, 4-[4-(4-chlorophenyl)piperazin-1-yl]-7H-pyrrolo[2,3-d]pyrimidine]
 |  | ≥ 10000 | 100 to 1000 | COc1ccccc1N1CCN(c2ncnc3[nH]ccc23)CC1 [Entry 302, 4-{4-[2-(methyloxy)phenyl]piperazin-1-yl}-7H-pyrrolo[2,3-d]pyrimidine]
 |  | 1000 to 10000 | 100 to 1000 | Cc1ccc(Cl)cc1N1CCN(c2ncnc3[nH]nc(Cc4ccccc4)c23)CC1 [Entry 354, 4-[4-(5-chloro-2-methylphenyl)piperazin-1-yl]-3-(phenylmethyl)-1H-pyrazolo[3,4-d]pyrimidine]
 |  | ≥ 10000 | 100 to 1000 | CCc1n[nH]c2ncnc(N3CCN(c4cc(Cl)cc(C(=O)N5CCN(C)CC5)c4OC)CC3)c12 [Entry 375, 4-(4-{5-chloro-2-(methyloxy)-3-[(4-methylpipera-zin-1-yl)carbonyl]phenyl}piperazin-1-yl)-3-ethyl-1H-pyrazolo[3,4-d]pyrimidine]
 |  | 1000 to 10000 | < 100 | CCc1n[nH]c2ncnc(N3CC4CC3CN4c3cccc(Cl)c3)c12 (stereo not shown) [Entry 344, 4-[5-(3-chlorophenyl)-2,5-diazabicyclo[2.2.1]hept-2-yl]-3-ethyl-1H-pyrazolo[3,4-d]pyrimidine]

More lines, now with the values behind:

Compound | IC50 (AktK; Table 1, class symbols per key) [nM] | IC50 (p70S6K; Table 1, class symbols per key) [nM] | IC50 (AktK) [nM] | IC50 (p70S6K) [nM]
Cc1c(NCCN2CCCC2)cc(C(=O)Nc2ccc(Cl)cc2)cc1N1CCN(c2ncnc3[nH]nc(Br)c23)CC1 [Entry 203, 3-[4-(3-bromo-1H-pyrazolo[3,4-d]pyrimidin-4-yl)piperazin-1-yl]-N-(4-chlorophenyl)-4-methyl-5-[(2-pyrrolidin-1-ylethyl)amino]benzamide] | < 100 | < 100 |  | 
CCc1n[nH]c2ncnc(N3CCN(c4cc(Cl)ccc4C)CC3)c12 [Entry 323, 4-[4-(5-chloro-2-methylphenyl)piperazin-1-yl]-3-ethyl-1H-pyrazolo[3,4-d]pyrimidine] |  |  | 1000 to 10000 | < 100
CCc1n[nH]c2ncnc(N3CCN(c4cc(Cl)cc(OCCCN5CCN(C)CC5)c4C)CC3)c12 [Entry 36, 4-[4-(5-chloro-2-methyl-3-{[3-(4-methylpiperazin-1-yl)propyl]oxy}phenyl)piperazin-1-yl]-3-ethyl-1H-pyrazolo[3,4-d]pyrimidine] | 100 to 1000 | < 100 |  | 
Cc1c(NCCN2CCCC2)cc(OCC(C)(C)C)cc1N1CCN(c2ncnc3[nH]nc(Br)c23)CC1 [Entry 221, 3-[4-(3-bromo-1H-pyrazolo[3,4-d]pyrimidin-4-yl)piperazin-1-yl]-5-[(2,2-dimethylpropyl)oxy]-2-methyl-N-(2-pyrrolidin-1-ylethyl)aniline] | < 100 | < 100 |  | 
Cc1ccc(N2CCN(c3ncnc4[nH]nc(Br)c34)CC2)cc1NCCN1CCCC1 [Entry 57, 5-[4-(3-bromo-1H-pyrazolo[3,4-d]pyrimidin-4-yl)piperazin-1-yl]-2-methyl-N-(2-pyrrolidin-1-ylethyl)aniline] | 1000 to 10000 | 100 to 1000 |  | 
Cc1cccc(C)c1N1CCN(c2ncnc3[nH]nc(Br)c23)CC1 [Entry 103, 3-bromo-4-[4-(2,6-dimethylphenyl)piperazin-1-yl]-1H-pyrazolo[3,4-d]pyrimidine] | ≥ 10000 | 100 to 1000 |  | 
CCCCC(=O)c1cc(NCCN2CCCC2)c(C)c(N2CCN(c3ncnc4[nH]nc(Br)c34)CC2)c1 [Entry 228, 1-{3-[4-(3-bromo-1H-pyrazolo[3,4-d]pyrimidin-4-yl)piperazin-1-yl]-4-methyl-5-[(2-pyrrolidin-1-ylethyl)amino]phenyl}pentan-1-one] | < 100 | < 100 |  | 
CCC(=O)c1cc(NCCN2CCCC2)c(C)c(N2CCN(c3ncnc4[nH]nc(Br)c34)CC2)c1 [Entry 243, 1-{3-[4-(3-bromo-1H-pyrazolo[3,4-d]pyrimidin-4-yl)piperazin-1-yl]-4-methyl-5-[(2-pyrrolidin-1-ylethyl)amino]phenyl}propan-1-one] | < 100 | < 100 |  | 
6-(4-phenylpiperazin-1-yl)-9H-purine [Example 1] | 1000 to 10000 | 1000 to 10000 |  | 
CCc1n[nH]c2ncnc(N3CCN(c4cc(F)cc(NCCN5CCCC5)c4Cl)CC3)c12 [Entry 130, 2-chloro-3-[4-(3-ethyl-1H-pyrazolo[3,4-d]pyrimidin-4-yl)piperazin-1-yl]-5-fluoro-N-(2-pyrrolidin-1-ylethyl)aniline] | 1000 to 10000 | < 100 |  | 
CCN1CCN(CCCOc2cc(Cl)cc(N3CCN(c4ncnc5[nH]nc(C(F)(F)F)c45)CC3)c2C)CC1 [Entry 71, 4-[4-(5-chloro-3-{[3-(4-ethylpiperazin-1-yl)propyl]oxy}-2-methylphenyl)piperazin-1-yl]-3-(trifluoromethyl)-1H-pyrazolo[3,4-d]pyrimidine] | 100 to 1000 | < 100 |  | 
Cc1ccc(Cl)cc1N1CCN(c2ncnc3[nH]nc(C=C4C[C@@H]5CN(C(=O)OCc6ccccc6)C[C@@H]5C4)c23)CC1 [Entry 395, phenylmethyl (3aR,6aS)-5-({4-[4-(5-chloro-2-methylphenyl)piperazin-1-yl]-1H-pyrazolo[3,4-d]pyrimidin-3-yl}methylidene)hexahydrocyclo-penta[c]pyrrole-2(1H)-carboxylate] |  |  | 1000 to 10000 | 1000 to 10000
Cc1ccc(-c2ccccc2OCCCN(C)C)cc1N1CCN(c2ncnc3[nH]nc(Br)c23)CC1 [Entry 276, 3-({3′-[4-(3-bromo-1H-pyrazolo[3,4-d]pyrimidin-4-yl)piperazin-1-yl]-4′-methylbiphenyl-2-yl}oxy)-N,N-dimethylpropan-1-amine] | < 100 | < 100 |  | 
CCc1n[nH]c2ncnc(N3CCN(c4ncnc5cc(OC)c(OC)cc45)CC3)c12 [Entry 169, 4-[4-(3-ethyl-1H-pyrazolo[3,4-d]pyrimidin-4-yl)piperazin-1-yl]-6,7-bis(methyloxy)quinazoline] | ≥ 10000 | 1000 to 10000 |  | 
Brc1n[nH]c2ncnc(N3CCN(c4nccnc4OCCN4CCCCC4)CC3)c12 [Entry 167, 3-bromo-4-(4-{3-[(2-piperidin-1-ylethyl)oxy]pyrazin-2-yl}piperazin-1-yl)-1H-pyrazolo[3,4-d]pyrimidine] | 1000 to 10000 | 100 to 1000 |  | 
Cc1ccc(N2CCN(c3ncnc4[nH]nc(Br)c34)CC2)c(C)c1 [Entry 64, 3-bromo-4-[4-(2,4-dimethylphenyl)piperazin-1-yl]-1H-pyrazolo[3,4-d]pyrimidine] | 1000 to 10000 | 100 to 1000 |  | 
Cc1c(OCCCN2CCCCC2)cc(Cl)cc1N1CCN(c2ncnc3[nH]nc(C(F)(F)F)c23)CC1 [Entry 69, 4-(4-{5-chloro-2-methyl-3-[(3-piperidin-1-ylpropyl)oxy]phenyl}piperazin-1-yl)-3-(trifluoromethyl)-1H-pyrazolo[3,4-d]pyrimidine] | 100 to 1000 | < 100 |  | 
Cc1c(NCCN2CCCC2)cc(C(=O)Nc2ccccc2)cc1N1CCN(c2ncnc3[nH]nc(Br)c23)CC1 [Entry 194, 3-[4-(3-bromo-1H-pyrazolo[3,4-d]pyrimidin-4-yl)piperazin-1-yl]-4-methyl-N-phenyl-5-[(2-pyrrolidin-1-ylethyl)amino]benzamide] | < 100 | < 100 |  | 
Fc1ccc(N2CCN(c3ncnc4[nH]nc(Br)c34)CC2)cc1Cl [Entry 93, 3-bromo-4-[4-(3-chloro-4-fluorophenyl)piperazin-1-yl]-1H-pyrazolo[3,4-d]pyrimidine] | 1000 to 10000 | < 100 |  | 
COc1ccccc1N1CCN(c2ncnc3[nH]nc(Br)c23)CC1 [Entry 66, 3-bromo-4-{4-[2-(methyloxy)phenyl]piperazin-1-yl}-1H-pyrazolo[3,4-d]pyrimidine] | ≥ 10000 | < 100 |  | 
CCN1CCN(CCOc2cc(Cl)cc(N3CCN(c4ncnc5[nH]nc(C(F)(F)F)c45)CC3)c2C)CC1 [Entry 81, 4-[4-(5-chloro-3-{[2-(4-ethylpiperazin-1-yl)ethyl]oxy}-2-methylphenyl)piperazin-1-yl]-3-(trifluoromethyl)-1H-pyrazolo[3,4-d]pyrimidine] | 100 to 1000 | < 100 |  | 
